We go through four molecules from PMC10428205, “Cytotoxicity of Ruthenium(II) Arene Complexes Containing Functionalized Ferrocenyl β-Diketonate Ligands” (Organometallics, 2023).

Series [1] in a line: Hydrophobicity, octanol-water shake-flask. Format: physicochemical. Here is the method:
curves to give an average concentration for shaken samples ([C]final). The concentration of an unshaken sample
of stock solution was determined to give [C]initial. The partition coefficient (LogP) was determined with by Eqn1. […]
All assays were conducted in triplicate.

Another series in a line: Cyclic voltammetry. The settings on record: for E0′ (Fc*/Fc*+): 0.1 M TBAPF6 in acetonitrile, Fc/Fc+ = 0.40 V internal standard; for E0′ (Fc*/Fc*+) / EP Red: vs SCE; for EP Red: irreversible reduction; for E0’ (Fc*/Fc*+) at 0.05 V/s: scan speed 0.05 V/s; for E0’ (Fc*/Fc*+) at 0.10 V/s: scan speed 0.10 V/s; for E0’ (Fc*/Fc*+) at 0.25 V/s: scan speed 0.25 V/s.
A further series has as its system MIA PaCa-2. Briefly: Whole cell uptake by ICP-MS. The format is cell-based, human. The settings on record: MIA PaCa-2, 10 μM, 48 h; for Whole cell uptake of Fe: ICP-MS. Here is the method: Cellular assays were conducted against human pancreatic carcinoma (MIA PaCa-2), human colorectal carcinoma p53-wildtype (HCT116 p53+/+), and human non-cancerous epithelial retinal cells (ARPE-19). The ARPE-19 cells were obtained from the American Type Culture Collection and provided by the University of Huddersfield. All cell lines were routinely maintained as monolayer cultures in appropriate complete medium and maintained in either T-25 or T-75 flasks at 37 °C and 5% CO2. MIA PaCa-2 and ARPE-19 cells were cultured in high glucose DMEM-F12 medium containing 10% foetal calf serum, and HCT116 p53+/+ was cultured in RPMI 1640 supplemented with […]
10% foetal calf serum. […]
Cell uptake assays were conducted using MIA PaCa-2 cells and these were maintained as described above. All assays were conducted in 6-well plates and cell concentrations of 1 x 10^5 cells/ well in 2 mL of complete cell media. These cell suspensions were added to the wells and incubated at 37°C and 5% CO2 for 24 h. The media was then removed, and 2 mL of media/copper compound was added to each well. For each compound, a concentration of 10 µM of ligands L1, L2, L4, L7 or complexes C1, C2, C4, C7 were used. The cells were incubated with the complexes for 48 h, before removing and discarding the media. The cell monolayers were then individually washed with PBS (3 x 1 mL) and all waste discarded. 0.25% Trypsin-EDTA (0.5 mL) was then added until the cells were removed from the surface of the wells and then diluted with media (1.5 mL). The contents of each well were transferred to separate Falcon tubes and centrifuged at 1500 rpm for 5 min. The supernatant was removed, the cell pellets were resuspended in PBS (1 mL) and centrifuged again at 1500 rpm for 5 min (this was completed 3 times). On the final time, the cells were counted before the last centrifuge and then pelleted and store in the freezer for ICP-MS analysis. All assays were conducted in triplicate.
Samples were then taken up in Optima high purity nitric acid, diluted to 10 mL with 1mL rhodium internal standard and 9 mL 18.2 Ultrapure water. The elemental contents of the samples were determined using ICP-MS-QQQ Thermo TQ spectrometer. Measurement of iron mass 56 and ruthenium isotope mass 100 was conducted by comparing solutions of known concentration and intensities. A series of standard calibration curves allows the concentration of each element to be determined. The standards were prepared by weight using 1000 mg/kg reference solutions. Operating conditions: cooling flow rate, 14.0 L/min, auxiliary gas flow rate, 0.8 L/min; sampling Depth 5 mm, additional gas flow 75 %, spray chamber 2.7 degrees, nebulizer flow rate, 1.144 L/min pump speed 15 rpm, RF power of 1,550 W.
Analysis of cellula r DNA damage by the Comet assay […]

Protocol for Cyclic voltammetry: To test that the redox potential is within a biological relevant region, cyclic voltammetry (CV) experiments are conducted on complexes 1, 2, 4, and 7 and their corresponding ferrocenyl β-diketonate ligands L1, L2, L4, and L7 for reference.
Inlet: scan of the fully reversible Fc*/Fc*^+ redox couple of 4 using scanning speeds between 0.05 and 0.25 V/s.

What is called LogP is the decadic logarithm of the partition coefficient of the neutral form, usually between octanol and water. Lower therefore signals a more hydrophilic compound. `[NH2][Pt]([NH2])([Cl])[Cl]` [CDDP, cisplatin, reference compound] yielded a LogP in series [1] of -2.20 ± 0.20.

As to `CC(O)=CC(=O)[c-]1cccc1.[Fe+2].c1cc[cH-]c1` [Complex L1], in “Cyclic voltammetry”, the “E0′ (Fc*/Fc*+)” value was 0.63 V, the “EP Red” value is listed as “–1.98 V”, the “E0’ (Fc*/Fc*+) at 0.05 V/s” value is recorded as 0.63 V and the “E0’ (Fc*/Fc*+) at 0.10 V/s” value turned out to be 0.62 V. The “E0’ (Fc*/Fc*+) at 0.25 V/s” value in the series “Cyclic voltammetry” worked out at 0.63 V. Further, the “Whole cell uptake of Fe” value in the series with MIA PaCa-2 is listed as 2661 ± 974 ng Fe/10^6 cells.

Consider `O=C(C=C(O)c1ccccc1)[c-]1cccc1.[Fe+2].c1cc[cH-]c1` [Complex L2], for which, in “Cyclic voltammetry”, the “E0′ (Fc*/Fc*+)” value came to 0.63 V, the “EP Red” value is “–1.73 V”, the “E0’ (Fc*/Fc*+) at 0.05 V/s” value was 0.63 V and the “E0’ (Fc*/Fc*+) at 0.10 V/s” value turned out to be 0.63 V. Moreover, the “E0’ (Fc*/Fc*+) at 0.25 V/s” value in the series “Cyclic voltammetry” is 0.63 V. For the same molecule, in the series with MIA PaCa-2, the “Whole cell uptake of Fe” value was determined as 2524 ± 458 ng Fe/10^6 cells.

`O=C(C=C(O)C(F)(F)F)[c-]1cccc1.[Fe+2].c1cc[cH-]c1` [Complex L7]: in the series “Cyclic voltammetry”, the “E0′ (Fc*/Fc*+)” value turned out to be 0.71 V, the “EP Red” value is reported as “–1.42 V”, the “E0’ (Fc*/Fc*+) at 0.05 V/s” value amounted to 0.71 V and the “E0’ (Fc*/Fc*+) at 0.10 V/s” value is given as 0.71 V. Moreover, in the series “Cyclic voltammetry”, the “E0’ (Fc*/Fc*+) at 0.25 V/s” value turned out to be 0.71 V. Also, in the series on MIA PaCa-2, the “increase in Fe uptake compared to the control” value is listed as “ca. 1.7 ×” and the “Whole cell uptake of Fe” value was 1536 ± 202 ng Fe/10^6 cells.
